The values that follow come from patent publication US20110152227A1, “DEUTERIUM LABELLED DERIVATIVES OF 3-(2-HYDROXY-5-METHYPHENYL)-N,N-DIISOPROPYL-3-PHENYLPROPYLAMINE AND METHODS OF USE THEREOF” (CONCERT PHARMACEUTICALS INC., priority 2008, published 2011).

Molecules are shown by their SMILES. Like-named read-outs stand apart in the source and are kept apart here.

This data set can be described thus: Evaluation of metabolic stability in human liver microsomes. In kind it is in vitro ADME. The note with it: for half-life at 1 μM: human, human liver microsomes; for half-life in human liver microsomes as compared to tolterodine: result in words, versus tolterodine. On the procedure:
Materials: Human liver microsomes (20 mg/mL) were obtained from Xenotech, LLC (Lenexa, Kans.). β-nicotinamide adenine dinucleotide phosphate, reduced form (NADPH), magnesium chloride (MgCl2), and dimethyl sulfoxide (DMSO) were purchased from Sigma-Aldrich.
The 7.5 mM stock solutions were diluted to 50 μM in acetonitrile (ACN). The 20 mg/mL human liver microsomes were diluted to 0.625 mg/mL in 0.1 M potassium phosphate buffer, pH 7.4, containing 3 mM MgCl2. The diluted microsomes were added to wells of a 96-well deep-well polypropylene plate in duplicate. Ten μL of one of the […] test compound solutions was added to the microsomes and the mixture was pre-warmed for 10 minutes. Reactions were initiated by addition of pre-warmed NADPH solution. The final reaction volume was 0.5 mL and contained 0.5 mg/mL human liver microsomes, 1 μM test compound, and 2 mM NADPH in 0.1 M potassium phosphate buffer, pH 7.4, and 3 mM MgCl2. The reaction mixtures were incubated at 37° C., and 50 μL aliquots were removed at 0, 5, 10, 20, and 30 minutes and added to shallow-well 96-well plates which contained 50 μL of ice-cold ACN with internal standard to stop the reactions. The plates were stored at 4° C. for 20 minutes after which 100 μL of water was added to the wells of the plate before centrifugation to pellet precipitated proteins. Supernatants were transferred to another 96-well plate and analyzed for amounts of parent remaining by LC-MS/MS using an Applied Bio-systems API 4000 mass spectrometer. 7-ethoxy coumarin (1 μM) was used as a positive control. The experiment was repeated as second time to confirm the results.
Data analysis: The in vitro t1/2s for test compounds were calculated from the slopes of the linear regression of % parent remaining (ln) vs incubation time relationship using the following formula: in vitro t1/2=0.693/k, where k=−[slope of linear regression of % parent remaining (ln) vs incubation time]. Data analysis was performed using Microsoft Excel Software.
(Liver microsomes are vesicles of endoplasmic reticulum, rich in cytochrome P450 enzymes.)

Where [1] appears, read: pH 7.4, average of Experiment 1 and 2, human liver microsomes, read-out: Ave t1/2.
[2] abbreviates: pH 7.4, human liver microsomes 0.5 mg/mL, 1 μM test compound, 2 mM NADPH, 37° C., 0-30 minutes, Experiment 1, read-out: t1/2 (minutes) Experiment 1.
[3] abbreviates: pH 7.4, human liver microsomes 0.5 mg/mL, 1 μM test compound, 2 mM NADPH, 37° C., 0-30 minutes, Experiment 2 (repeat), read-out: t1/2 (minutes) Experiment 2.

With `[2H]C([2H])([2H])c1ccc(O)c([C@H](CCN(C([2H])(C([2H])([2H])[2H])C([2H])([2H])[2H])C([2H])(C([2H])([2H])[2H])C([2H])([2H])[2H])c2ccccc2)c1` [Compound 100], the “half-life in human liver microsomes as compared to tolterodine” value was “substantially increased half-life”. Further, under setting [1], the half-life at 1 μM worked out at 25.8 min. Also, the half-life at 1 μM under setting [2] came to 23.5 min. Moreover, under setting [3], the half-life at 1 μM is 28 min.

`[2H]C([2H])([2H])C([2H])(N(CC[C@H](c1ccccc1)c1cc(C)ccc1O)C([2H])(C([2H])([2H])[2H])C([2H])([2H])[2H])C([2H])([2H])[2H]` [Compound 106, (R)-2-(3-(Di(isopropyl-d7)amino)-1-phenylpropyl)-4-methylphenol]: the half-life at 1 μM came to 15.1 min under setting [1], 14.6 min under setting [2] and 15.6 min under setting [3].

Turning to `[2H]C([2H])([2H])c1ccc(O)c([C@H](CCN(C(C)C)C(C)C)c2ccccc2)c1` [Compound 112], the “half-life in human liver microsomes as compared to tolterodine” value is listed as “substantially increased half-life”. Besides, the half-life at 1 μM under setting [1] was determined as 26.6 min. Besides, the half-life at 1 μM under setting [2] is 24.3 min. Moreover, the half-life at 1 μM under setting [3] came to 28.9 min.

As to `Cc1ccc(O)c(C(CCN(C(C)C)C(C)C)c2ccccc2)c1` (centres unmarked) [Tolterodine, 3-(2-hydroxy-5-methylphenyl)-N,N-diisopropyl-3-phenylpropylamine, reference compound], the half-life at 1 μM under setting [1] is 13.8 min, the half-life at 1 μM under setting [2] turned out to be 13.4 min and the half-life at 1 μM under setting [3] is 14.2 min.
